As a reminder, the LD50 is the dose at which mortality reaches 50%. Lower therefore signals greater toxicity. In general, pIC50 refers to −log10 of the IC50, conventionally taken in molar units.

pIC50: −log10 of the molar value.

One data set concerns contraction of rat uterus induced by PGE2. The experiment in a line: inhibitory effects of compounds on contraction of rat uterus induced by PGE2. Further details: species or system rat (Sprague Dawley). The conditions noted are these: contraction induced by 0.3 μM PGE2; isolated pseudo pregnant rat uterus strips, 28° C.; compound concentration not given. As to the method:
(ii) The inhibitory effects of compounds on contraction of rat uterus induced by PGE2
Pseudo pregnant rat uterus (Sprague Dawley, 200-300 g, induced by oestradiol […] s.c. 18-24 hours before experiment) was isolated and longitudinal strips of 1-1.5 cm were set up in Locke-Ringer solution containing low Ca^2+, aerated with mixed gas (oxygen 95%+carbon dioxide 5%) at 28° C.
`CC1(C)[C@H]2C[C@H](NS(=O)(=O)/C=C/c3ccccc3)[C@@H](C/C=C\CCCC(=O)O)[C@@H]1C2` [6 (12), 7-[(1S, 2S, 3S, 5R)-3-(2-phenylvinylsulfonylamino)-6,6-dimethylbicyclo[3.1.1]heptan-2-yl]-5Z-heptenoic acid]: the “inhibition of the contraction of rat uterus induced by PGE2” value is given as “completely inhibited”.

Tested on in a further data set: not listed separately
Put plainly: acute toxicity (LD50) in mouse by oral administration. The settings on record: in vivo. As to the method: For example, the acute toxicity (LD50) in mouse of 6-[(1S, 2R, 3R, 4R)-3-(4-bromophenylsulfonylaminomethyl)bicyclo[2.2.1]heptan-2-yl]-5Z-hexenoic acid (it is described as example 1(y) in specification of the U.S. Pat. No. 5,168,101.) was more than 300 mg/kg by oral administration.
For the compound `O=C(O)CCC/C=C\[C@@H]1[C@H]2CC[C@H](C2)[C@H]1CNS(=O)(=O)c1ccc(Br)cc1` [U.S. Pat. No. 5168101 1 (y), 6-[(1S, 2R, 3R, 4R)-3-(4-bromophenylsulfonylaminomethyl)bicyclo[2.2.1]heptan-2-yl]-5Z-hexenoic acid], the LD50 was above 300 mg/kg.

The next data set has as its target prostaglandin E2 receptor. Put plainly: inhibition of [^3 H]-PGE2 receptor binding in rat uterus membrane fraction. The settings on record: Table I; 5 nM [^3 H]-PGE2, rat uterus crude membrane fraction, pH 6.0, 1 hour at room temperature; read-out: IC50, inhibitory effects of PGE2 receptor binding in rat. The protocol:
(i) The measurement of the inhibition of [^3 H]-PGE2 receptor binding
The standard assay mixture contained 5 nM [^3 H]-PGE2 (50 μl), test compounds (50 μl) and crude membrane fraction obtained from rat uterus (1.2 mg protein/ml, 100 μl) in a final volume of 200 μl (10 mM potassium phosphate pH 6.0, 0.1M NaCl (buffer A)). After incubation for 1 hour at room temperature, the reaction was stopped by the addition of 3 ml of ice-cold buffer A, after which the mixture was rapidly filtered through a Whatman GF/B glass filter. The radioactivity associated with the filter was measured in ACS II (Amarsham) by liquid scintillation counting. Percent inhibition of specific [^3 H]-PGE2 binding or IC50 value, the concentration required to compete with ^3 H-PGE2 receptor binding by 50% were calculated.
`Cc1ccc(S(=O)(=O)N[C@H]2[C@H]3CC[C@H](C3)[C@@H]2C/C=C\CCCC(=O)O)cc1` [Example 4, 7-[(1R,2S,3S,4S)-3-tosylaminobicyclo[2.2.1]heptan-2-yl]-5Z-heptenoic acid]: the pIC50 was 5.47. The same measure, in the same setting: as for `O=C(O)CCC/C=C\C1CC2CCC1C(NS(=O)(=O)c1ccc(Br)cc1)C2` (stereo not shown) [U.S. Pat. No. 5168101 1 (a)], the figure is 6.11; as for `Cc1ccc(S(=O)(=O)NCC2C3C=CC(C3)C2C=CCCCC(=O)O)cc1` (stereo not shown) [U.S. Pat. No. 5168101 1 (aa)], 5.70. Same read-out and setting: the value for `O=C(O)CCC/C=C\C1CC2CC(NS(=O)(=O)c3ccc(Br)cc3)C1C2` (stereo not shown) [U.S. Pat. No. 5168101 1 (b)] was 5.46. Same read-out and setting: as for `O=C(O)CCCC=CC1C2C=CC(C2)C1CNS(=O)(=O)c1ccc(Br)cc1` (stereo not shown) [U.S. Pat. No. 5168101 1 (bb)], the figure is 6.09; as for `O=C(O)CCC/C=C\C1CC2CC(NS(=O)(=O)c3ccc(Br)cc3)C1C2` (stereo not shown) [U.S. Pat. No. 5168101 1 (c)], 6.30; as for `O=C(O)CCCC=CC1C2CCC(C2)C1CNS(=O)(=O)c1ccc(Br)cc1` (stereo not shown) [U.S. Pat. No. 5168101 1 (cc)], 6.41. For `O=C(O)CCC/C=C\[C@@H]1CC[C@H](NS(=O)(=O)c2ccc(Br)cc2)C1` [U.S. Pat. No. 5168101 1 (i)], the negative-log IC50 (pIC50) is 5.62. Still for that read-out and setting: as for `Cc1ccc(S(=O)(=O)NCC2C3CCC(C3)C2/C=C\CCCC(=O)O)cc1` (stereo not shown) [U.S. Pat. No. 5168101 1 (p)], the figure is 5.19; as for `O=C(O)CCC/C=C\C1CCCCC1CNS(=O)(=O)c1ccc(Br)cc1` (stereo not shown) [U.S. Pat. No. 5168101 1 (t)], 5.92; as for `Cc1ccc(S(=O)(=O)NCC2C3CCC(C3)C2C=CCCCC(=O)O)cc1` (stereo not shown) [U.S. Pat. No. 5168101 1 (x)], 5.80.

Regarding `O=C(O)CCC/C=C\[C@@H]1[C@H]2CC[C@H](C2)[C@H]1CNS(=O)(=O)c1ccc(Br)cc1` [U.S. Pat. No. 5168101 1 (y), 6-[(1S, 2R, 3R, 4R)-3-(4-bromophenylsulfonylaminomethyl)bicyclo[2.2.1]heptan-2-yl]-5Z-hexenoic acid], the pIC50 was 6.21.

The data set is the same for the next values; noted with them: Table II; 5 nM [^3 H]-PGE2, rat uterus crude membrane fraction, pH 6.0, 1 hour at room temperature; read-out: IC50, inhibitory effects of PGE2 receptor binding in rat.
As to `CC1(C)[C@H]2C[C@H](NS(=O)(=O)/C=C/c3ccccc3)[C@@H](C/C=C\CCCC(=O)O)[C@@H]1C2` [6 (12), 7-[(1S, 2S, 3S, 5R)-3-(2-phenylvinylsulfonylamino)-6,6-dimethylbicyclo[3.1.1]heptan-2-yl]-5Z-heptenoic acid], the pIC50 is above 8.00.

For `CC1(C)[C@H]2C[C@H](NS(=O)(=O)C=C(c3ccccc3)c3ccccc3)[C@@H](C/C=C\CCCC(=O)O)[C@@H]1C2` [Example 9, 7-[(1S,2S,3S,5R)-3-(2,2-diphenylvinylsulfonylamino)-6,6-dimethylbicyclo[3.1.1]heptan-2-yl]-5Z-heptenoic acid], the pIC50 is 6.59.

The record behind these values is patent publication US5663417A, “Carbocyclic sulfonamides” (Ono Pharmaceutical Co., Ltd., priority 1993, dated 1997).
